Earlier results, collected in PubChem BioAssay AID1259409 (Chemical Carcinogenesis Research Information System (CCRIS), 2018).

Tested on: rodent chemically induced tumor inhibition, incidence and multiplicity
Test: CCRIS tumor inhibitor studies

NCCCC(N)(C(=O)O)C(F)F (stereo not drawn)
tumour outcome (control, treated, inhibition, significance) (Carcinogen: 1,2-DIMETHYLHYDRAZINE, 540-73-8, Dose [Inhibitor]: 0, 0.2% IN DRINKING WATER BEGINNING 1 D PRIOR TO CARCINOGEN TREATMENT AND CONTINUING FOR DURATION OF STUDY (STUDY DURATI, Route [Inhibitor]: ORAL, Species: RAT, Strain/Sex: SPRAGUE-DAWLEY/MALE, Target Tissue: Type of Lesion: DISTAL COLON: ADENOCARCINOMA, Dose [Carcinogen]: 20 MG/KG 1/WK FOR 20 WK, Promoter: NONE USED): 94%, 67%, 29%, p<0.01 | tumour outcome (control, treated, inhibition, significance) (Carcinogen: 7,12-DIMETHYLBENZ[A]ANTHRACENE, 57-97-6, Dose [Inhibitor]: 0.3 MG IN 0.2 ML ACETONE:ETHANOL:WATER (2:1:1, V/V) 1 HR AFTER EACH PROMOTER DOSE FOR 20 WK (STUDY DURATION: 20 WK), Route [Inhibitor]: DERMAL, Species: MOUSE, Strain/Sex: CD-1/FEMALE, Target Tissue: Type of Lesion: SKIN: PAPILLOMA, Dose [Carcinogen]: 0.2 UMOL IN 0.2 ML ACETONE ONCE, Promoter: 12-O-TETRADECANOYLPHORBOL-13-ACETATE, 16561-29-8): 97%, 61%, 37%, not calculated | tumour outcome (control, treated, inhibition, significance) (Carcinogen: 7,12-DIMETHYLBENZ[A]ANTHRACENE, 57-97-6, Dose [Inhibitor]: 0.3 MG IN 0.2 ML ACETONE:ETHANOL:WATER (2:1:1,V/V) 1 HR AFTER EACH PROMOTER DOSE FOR 20 WK (STUDY DURATION: 20 WK), Route [Inhibitor]: DERMAL, Species: MOUSE, Strain/Sex: CD-1/FEMALE, Target Tissue: Type of Lesion: SKIN: PAPILLOMA, Dose [Carcinogen]: 0.2 UMOL IN 0.2 ML ACETONE ONCE, Promoter: 12-O-TETRADECANOYLPHORBOL-13-ACETATE, 16561-29-8): 84%, 63%, 25%, not calculated | tumour outcome (control, treated, inhibition, significance) (Carcinogen: 7,12-DIMETHYLBENZ[A]ANTHRACENE, 57-97-6, Dose [Inhibitor]: 1% (W/V) IN DRINKING WATER 2 D PRIOR TO 1ST PROMOTER DOSE UNTIL THE END OF EXPERIMENT (STUDY DURATION: 20 WK), Route [Inhibitor]: ORAL, Species: MOUSE, Strain/Sex: CD-1/FEMALE, Target Tissue: Type of Lesion: SKIN: PAPILLOMA, Dose [Carcinogen]: 0.2 UMOL IN 0.2 ML ACETONE ONCE, Promoter: 12-O-TETRADECANOYLPHORBOL-13-ACETATE, 16561-29-8): 100%, 43%, 57%, not calculated | tumour outcome (control, treated, inhibition, significance) (Carcinogen: 7,12-DIMETHYLBENZ[A]ANTHRACENE, 57-97-6, Dose [Inhibitor]: 2% IN DRINKING WATER (AVERAGE DAILY INTAKE: 8.53 ML/MOUSE/D) FOR 18 WK (STUDY DURATION: 18 WK), Route [Inhibitor]: ORAL, Species: MOUSE, Strain/Sex: SENCAR/FEMALE, Target Tissue: Type of Lesion: SKIN: PAPILLOMA, Dose [Carcinogen]: 10 NMOL ONCE AT 7 WK OF AGE, Promoter: 12-O-TETRADECANOYLPHORBOL-13-ACETATE, 16561-29-8): 92%, 81%, 12%, not calculated | tumour outcome (control, treated, inhibition, significance) (Carcinogen: 7,12-DIMETHYLBENZ[A]ANTHRACENE, 57-97-6, Dose [Inhibitor]: 3 MG IN 0.2 ML ACETONE:ETHANOL:WATER (2:1:1, V/V) 1 HR AFTER EACH PROMOTER DOSE FOR 20 WK (STUDY DURATION: 20 WK), Route [Inhibitor]: DERMAL, Species: MOUSE, Strain/Sex: CD-1/FEMALE, Target Tissue: Type of Lesion: SKIN: PAPILLOMA, Dose [Carcinogen]: 0.2 UMOL IN 0.2 ML ACETONE ONCE, Promoter: 12-O-TETRADECANOYLPHORBOL-13-ACETATE, 16561-29-8): 68%, 47%, 31%, not calculated | tumour outcome (control, treated, inhibition, significance) (Carcinogen: 7,12-DIMETHYLBENZ[A]ANTHRACENE, 57-97-6, Dose [Inhibitor]: 5 MG, 2 HR PRIOR TO EACH BIWEEKLY PROMOTER DOSE FOR 18 WK (STUDY DURATION: 18 WK), Route [Inhibitor]: INTRAPERITONEAL, Species: MOUSE, Strain/Sex: SENCAR/FEMALE, Target Tissue: Type of Lesion: SKIN: PAPILLOMA, Dose [Carcinogen]: 10 NMOL AT 7 WK OF AGE ONCE 18 WK, Promoter: 12-O-TETRADECANOYLPHORBOL-13-ACETATE, 16561-29-8): 92%, 77%, 16%, not calculated | tumour outcome (control, treated, inhibition, significance) (Carcinogen: 7,12-DIMETHYLBENZ[A]ANTHRACENE, 57-97-6, Dose [Inhibitor]: 6 MG IN 0.9% NACL 1 HR AFTER EACH PROMOTER DOSE (STUDY DURATION: 20 WK), Route [Inhibitor]: INTRAPERITONEAL, Species: MOUSE, Strain/Sex: CD-1/FEMALE, Target Tissue: Type of Lesion: SKIN: PAPILLOMA, Dose [Carcinogen]: 0.2 UMOL IN 0.2 ML ACETONE ONCE, Promoter: 12-O-TETRADECANOYLPHORBOL-13-ACETATE, 16561-29-8): 83%, 63%, 24%, not calculated | tumour outcome (control, treated, inhibition, significance) (Carcinogen: 7,12-DIMETHYLBENZ[A]ANTHRACENE, 57-97-6, Dose [Inhibitor]: 18 MG IN 0.9% NACL 1 HR AFTER EACH PROMOTER DOSE (STUDY DURATION: 20 WK), Route [Inhibitor]: INTRAPERITONEAL, Species: MOUSE, Strain/Sex: CD-1/FEMALE, Target Tissue: Type of Lesion: SKIN: PAPILLOMA, Dose [Carcinogen]: 0.2 UMOL IN 0.2 ML ACETONE ONCE, Promoter: 12-O-TETRADECANOYLPHORBOL-13-ACETATE, 16561-29-8): 83%, 60%, 28%, not calculated | tumour outcome (control, treated, inhibition, significance) (Carcinogen: 7,12-DIMETHYLBENZ[A]ANTHRACENE, 57-97-6, Dose [Inhibitor]: 20 MG 2/WK OR 16 WK TOGETHER WITH EACH MEZEREIN TREATMENT BEGINNING 3 WK POST CARCINOGEN DOSE (STUDY DURATION: 18 WK), Route [Inhibitor]: INTRAPERITONEAL, Species: MOUSE, Strain/Sex: SENCAR/FEMALE, Target Tissue: Type of Lesion: SKIN: PAPILLOMA, Dose [Carcinogen]: 10 NMOL ONCE FOLLOWED ONE WK LATER BY PROMOTER, Promoter: 12-O-TETRADECANOYLPHORBOL-13-ACETATE, 16561-29-8, MEZERIN, 34807-41-5, Promoter: 12-O-TETRADECANOYLPHORBOL-13-ACETATE, 16561-29-8, MEZERIN, 34807-41-5): 78%, 45%, 42%, not calculated | tumour outcome (control, treated, inhibition, significance) (Carcinogen: 7,12-DIMETHYLBENZ[A]ANTHRACENE, 57-97-6, Dose [Inhibitor]: 20 MG 2/WK TOGETHER WITH EACH PROMOTER TREATMENT BEGINNING 1 WK POST CARCINOGEN DOSE (STUDY DURATION: 18 WK), Route [Inhibitor]: INTRAPERITONEAL, Species: MOUSE, Strain/Sex: SENCAR/FEMALE, Target Tissue: Type of Lesion: SKIN: PAPILLOMA, Dose [Carcinogen]: 10 NMOL ONCE, Promoter: 12-O-TETRADECANOYLPHORBOL-13-ACETATE, 16561-29-8, MEZERIN, 34807-41-5, Promoter: 12-O-TETRADECANOYLPHORBOL-13-ACETATE, 16561-29-8, MEZERIN, 34807-41-5): 78%, 78%, 0%, not significant | tumour outcome (control, treated, inhibition, significance) (Carcinogen: 7,12-DIMETHYLBENZ[A]ANTHRACENE, 57-97-6, Dose [Inhibitor]: 20 MG 2 HR PRIOR TO EACH BIWEEKLY PROMOTER DOSE FOR 18 WK (STUDY DURATION: 18 WK), Route [Inhibitor]: INTRAPERITONEAL, Species: MOUSE, Strain/Sex: SENCAR/FEMALE, Target Tissue: Type of Lesion: SKIN: PAPILLOMA, Dose [Carcinogen]: 10 NMOL ONCE AT 7 WK OF AGE, Promoter: 12-O-TETRADECANOYLPHORBOL-13-ACETATE, 16561-29-8): 92%, 84%, 9%, not calculated | tumour outcome (control, treated, inhibition, significance) (Carcinogen: BETA IRRADIATION, Dose [Inhibitor]: 0, 1% IN DRINKING WATER DURING IRRADIATION EXPOSURE (STUDY DURATION: 950 D), Route [Inhibitor]: ORAL, Species: MOUSE, Strain/Sex: ICR/FEMALE, Target Tissue: Type of Lesion: SKIN: TUMOR, Dose [Carcinogen]: 3 GY/MIN 3/WK UNTIL EMERGENCE OF TUMORS, Promoter: NONE USED): 100%, 100%, 0%, not significant
